Laboratory results: patent US9850283B2, “Macrocyclic inhibitors of the PD-1/PD-L1 and CD80(B7-1)/PD-L1 protein/protein interactions” (BRISTOL-MYERS SQUIBB COMPANY, priority 2013, dated 2017)
Where two headings read alike, the source gives them in different places. Positions of bridges follow the written chain, without caps; N, C: chain ends. Non-standard residues stand in square brackets, D forms with d. Residues, ends and D or L forms follow the SMILES beside them. ξ: configuration not given here. Phe(3,4-(OMe)2) = COc1ccc(C[C@H](N)C(=O)O)cc1OC; 2Nal = N[C@@H](Cc1ccc2ccccc2c1)C(=O)O; Bta = N[C@@H](Cc1csc2ccccc12)C(=O)O; Hyp = O=C(O)[C@@H]1C[C@@H](O)CN1; NMeF = CN[C@@H](Cc1ccccc1)C(=O)O; NMeNle = CCCC[C@H](NC)C(=O)O; NMeA = CN[C@@H](C)C(=O)O; ξC = NC(CS)C(=O)O; Sar = CNCC(=O)O

Columns and labels:
Human PD-L1/PD-1 = target: T1, Human PD-L1/PD-1 (Homo sapiens, UniProt Q9NZQ7); assay: HTRF PD-1-Ig/PD-L1-His binding assay (human PD-L1)
T1 construct: made in house; host or cells: HEK293T
Method in brief: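 The time-resolved fluorescence signal comes from Eu-cryptate anti-Ig (1 nM) and APC anti-His (20 nM) antibodies bound to a PD-1-Ig/PD-L1-His complex. Both partners lack transmembrane regions.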

[1] = target: T2, LK35.2-hPD-L1 cells / PE-labeled PD-1-Ig (Homo sapiens, UniProt Q9NZQ7); assay: LK35.2-hPD-L1 cell binding high-content screening assay; format: cell-based
T2 construct: expressed in transfected cells; host or cells: LK35.2 mouse B cell line
Method in brief: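 Compound effect on PD-1/PD-L1 binding is measured by imaging cell-associated phycoerythrin signal. Human PD-1-Ig (PE on Ig tag, 1 nM final) is applied with compound to a murine B cell line overexpressing human PD-L1 for 1 h at 37 °C in serum-containing RPMI.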

[2] = cluster symbol, read-out: HTRF IC50 cluster
[3] = cell binding assay, cell line not given, cluster symbol, read-out: CBA IC50 cluster

T2 sequence (Q9NZQ7 19-290): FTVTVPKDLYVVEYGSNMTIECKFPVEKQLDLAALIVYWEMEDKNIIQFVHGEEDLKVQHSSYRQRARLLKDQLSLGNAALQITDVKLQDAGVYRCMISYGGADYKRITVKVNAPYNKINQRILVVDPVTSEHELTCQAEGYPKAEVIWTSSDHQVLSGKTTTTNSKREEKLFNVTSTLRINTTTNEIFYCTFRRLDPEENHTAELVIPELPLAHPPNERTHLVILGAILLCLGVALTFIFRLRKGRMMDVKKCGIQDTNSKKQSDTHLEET
T1 sequence (Q9NZQ7 with tags, fused parts or gaps): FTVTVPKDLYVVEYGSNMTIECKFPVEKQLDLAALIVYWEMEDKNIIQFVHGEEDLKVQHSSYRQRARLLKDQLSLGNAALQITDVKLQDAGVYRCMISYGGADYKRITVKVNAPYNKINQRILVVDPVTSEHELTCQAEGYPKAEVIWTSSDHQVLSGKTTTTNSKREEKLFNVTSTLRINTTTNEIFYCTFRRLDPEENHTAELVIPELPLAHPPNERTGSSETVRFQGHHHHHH

SMILES | IC50 (Human PD-L1/PD-1; [2]) [nM] | IC50 [1, 3] [nM] | IC50 (Human PD-L1/PD-1; read-out: HTRF IC50 value) [nM] | IC50 ([1]; cell line of CBA not given (LK35.2-hPD-L1 or 293T-hPD-L1), read-out: CBA IC50 value) [nM]
CCCC[C@H]1C(=O)N(C)[C@@H](CCCC)C(=O)N[C@@H](CCCNC(=N)N)C(=O)NC(C(=O)NCC(N)=O)CSCC(=O)N[C@@H](Cc2ccc(O)cc2)C(=O)N(C)[C@@H](C)C(=O)N[C@@H](CC(N)=O)C(=O)N2CCC[C@H]2C(=O)N[C@@H](Cc2c[nH]cn2)C(=O)N[C@@H](C)C(=O)N[C@@H](CC(C)C)C(=O)N2CCC[C@H]2C(=O)N[C@@H](Cc2c[nH]c3ccccc23)C(=O)N[C@@H](CO)C(=O)N[C@@H](Cc2c[nH]c3ccccc23)C(=O)N1C (some centres unmarked) [Example 10517] ({CH2CO}-Y[NMeA]NPHALPWSW[NMeNle][NMeNle]R[ξC]G-NH2; thioether N-15) | > 30.5 | > 74.3 |  | 
CCCC[C@H]1C(=O)N(C)CC(=O)N[C@@H](CC(=O)O)C(=O)N[C@@H](C(C)C)C(=O)N(C)[C@@H](Cc2ccccc2)C(=O)N[C@@H](CCCNC(=N)N)C(=O)N(C)CC(=O)N[C@@H](Cc2c[nH]c3ccccc23)C(=O)N[C@@H](Cc2ccc(O)cc2)C(=O)N[C@@H](CCC(=O)O)C(=O)N[C@H](C(=O)NCC(N)=O)CSCC(=O)N[C@@H](Cc2ccccc2)C(=O)N(C)[C@@H](Cc2ccccc2)C(=O)N1C [Example 3542] (HELM PEPTIDE1{[O=C(C[*:3])[*:2]].F.[meF].[CCCC[C@@H](C(=O)[*:2])N(C)[*:1]].[Sar].D.V.[meF].R.[Sar].W.Y.E.C.G.[am]}$PEPTIDE1,PEPTIDE1,1:R3-14:R3$$$V2.0) | 6.76 to 30.3 | 4.78 to 72.9 |  | 
CCCC[C@H]1C(=O)N(C)[C@@H](CCCC)C(=O)N[C@@H](CCCNC(=N)N)C(=O)NC(C(=O)NCC(N)=O)CSCC(=O)N[C@@H](Cc2ccc(O)cc2)C(=O)N(C)[C@@H](C)C(=O)N[C@@H](CC(N)=O)C(=O)N2C[C@H](O)C[C@H]2C(=O)N[C@@H](Cc2cnc[nH]2)C(=O)N[C@@H](CC(C)C)C(=O)N2C[C@H](O)C[C@H]2C(=O)N[C@@H](Cc2c[nH]c3ccccc23)C(=O)N[C@@H](CO)C(=O)N[C@@H](Cc2csc3ccccc23)C(=O)N1C (some centres unmarked) [Example 9012] ({CH2CO}-Y[NMeA]N[Hyp]HL[Hyp]WS[Bta][NMeNle][NMeNle]R[ξC]G-NH2; thioether N-14) | 6.76 to 30.3 | 0.158 to 4.71 |  | 
CCCC[C@H]1C(=O)N(C)[C@@H](CCCC)C(=O)N[C@@H](CO)C(=O)N[C@H](C(=O)NCC(N)=O)CSCC(=O)N[C@@H](Cc2ccc(O)cc2)C(=O)N(C)[C@@H](C)C(=O)N[C@@H](CO)C(=O)N2CCC[C@H]2C(=O)N[C@@H](CO)C(=O)N[C@@H](CC(C)C)C(=O)N2C[C@H](O)C[C@H]2C(=O)N[C@@H](Cc2c[nH]c3ccccc23)C(=O)N[C@@H](CO)C(=O)N[C@@H](Cc2c[nH]c3ccccc23)C(=O)N1C [Example 5116] ({CH2CO}-Y[NMeA]SPSL[Hyp]WSW[NMeNle][NMeNle]SCG-NH2; thioether N-14) | 0.385 to 6.74 | 4.78 to 72.9 |  | 

Second part, the molecule after the results:

IC50 (Human PD-L1/PD-1; [2]) [nM] | IC50 [1, 3] [nM] | IC50 (Human PD-L1/PD-1; read-out: HTRF IC50 value) [nM] | IC50 ([1]; cell line of CBA not given (LK35.2-hPD-L1 or 293T-hPD-L1), read-out: CBA IC50 value) [nM] | SMILES
> 30.5 | 4.78 to 72.9 |  |  | CCCC[C@H]1C(=O)N(C)CC(=O)N[C@@H](CC(=O)O)C(=O)N[C@@H](C(C)C)C(=O)N(C)[C@@H](Cc2ccccc2)C(=O)N[C@@H](Cc2ccc3ccccc3c2)C(=O)N(C)CC(=O)N[C@@H](Cc2c[nH]c3ccccc23)C(=O)N[C@@H](Cc2ccc(O)cc2)C(=O)N[C@@H](CC(C)C)C(=O)N[C@H](C(=O)NCC(N)=O)CSCC(=O)N[C@@H](Cc2ccccc2)C(=O)N(C)[C@@H](Cc2ccccc2)C(=O)N1C [Example 3535] ({CH2CO}-F[NMeF][NMeNle][Sar]DV[NMeF][2Nal][Sar]WYLCG-NH2; thioether N-13)
> 30.5 | > 74.3 |  |  | CCCC[C@H]1C(=O)N(C)CC(=O)N[C@@H](CC(=O)O)C(=O)N[C@@H](C(C)C)C(=O)N(C)[C@@H](Cc2ccccc2)C(=O)N[C@@H](Cc2ccc(O)cc2)C(=O)N(C)CC(=O)N[C@@H](Cc2c[nH]c3ccccc23)C(=O)N[C@@H](Cc2ccc(OC)c(OC)c2)C(=O)N[C@@H](CC(C)C)C(=O)N[C@H](C(=O)NCC(N)=O)CSCC(=O)N[C@@H](Cc2ccccc2)C(=O)N(C)[C@@H](Cc2ccccc2)C(=O)N1C [Example 3541] ({CH2CO}-F[NMeF][NMeNle][Sar]DV[NMeF]Y[Sar]W[Phe(3,4-(OMe)2)]LCG-NH2; thioether N-13)
 |  | 439 | 1870 | CCCC[C@H]1C(=O)N(C)CC(=O)N[C@@H](CC(=O)O)C(=O)N[C@@H](CO)C(=O)N(C)[C@@H](Cc2ccccc2)C(=O)N[C@@H](Cc2ccc(O)cc2)C(=O)N(C)CC(=O)N[C@@H](Cc2c[nH]c3ccccc23)C(=O)N[C@@H](Cc2ccc(O)cc2)C(=O)N[C@@H](CC(C)C)C(=O)N[C@H](C(=O)NCC(N)=O)CSCC(=O)N[C@@H](Cc2ccccc2)C(=O)N(C)[C@@H](Cc2ccccc2)C(=O)N1C [Example 3156] (HELM PEPTIDE1{[O=C(C[*:3])[*:2]].F.[meF].[CCCC[C@@H](C(=O)[*:2])N(C)[*:1]].[Sar].D.S.[meF].Y.[Sar].W.Y.L.C.G.[am]}$PEPTIDE1,PEPTIDE1,1:R3-14:R3$$$V2.0)
